Experimental data from ChEMBL document CHEMBL1201862, “PubChem BioAssay data set” (2004).
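Assay format: 96-well plates, 48-hour exposure. GI50 = concentration required for 50% inhibition of growth.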 Calls of active or inactive are those of the source. No stated cut-off is given here; in the data, active = GI50 up to about 1.1 µM and inactive = higher.

Legend:
Test in all cases: NCI anticancer screen, dose series, 48 h
[1] = test system: SW-620
[2] = test system: NCI-H226
[3] = test system: RPMI-8226
[4] = test system: NCI/ADR-RES
[5] = test system: MDA-MB-231
[6] = test system: SF-295
[7] = test system: OVCAR-4
[8] = test system: HCT-116
[9] = test system: HL-60
[10] = test system: SR
[11] = test system: PC-3
[12] = test system: SK-MEL-5
[13] = test system: DU-145
[14] = test system: UACC-62
[15] = test system: HCC 2998
[16] = test system: OVCAR-8
[17] = test system: SN12C
[18] = test system: 786-0
[19] = test system: NCI-H522
[20] = test system: SNB-75

Compound: C[n+]1c2ccccc2c(N=[N+]=[N-])c2ccccc21
- GI50 [1]: 6.28 µM (inactive)
- GI50 [2]: 6.27 µM (inactive)
- GI50 [3]: 5.08 µM (inactive)
- GI50 [4]: > 10 µM (inactive)
- GI50 [5]: 8.63 µM (inactive)
- GI50 [6]: > 10 µM (inactive)
- GI50 [7]: 4.26 µM (inactive)
- GI50 [8]: 4.22 µM (inactive)
- GI50 [9]: 9.18 µM (inactive)
- GI50 [10]: 4.13 µM (inactive)
- GI50 [11]: 5.37 µM (inactive)
- GI50 [12]: > 10 µM (inactive)
- GI50 [13]: > 10 µM (inactive)
- GI50 [14]: 7.73 µM (inactive)
- GI50 [15]: > 10 µM (inactive)
- GI50 [16]: 6.46 µM (inactive)
- GI50 [17]: 7.03 µM (inactive)
- GI50 [18]: 4.53 µM (inactive)
- GI50 [19]: 8.87 µM (inactive)

Compound: Cc1nc(-c2ccccc2)c(C)n2c1nc1ccccc12
- GI50 [1]: 33 µM (inactive)
- GI50 [2]: 40.5 µM (inactive)
- GI50 [3]: 14.2 µM (inactive)
- GI50 [4]: 23.4 µM (inactive)
- GI50 [5]: 31.9 µM (inactive)
- GI50 [6]: 37.6 µM (inactive)
- GI50 [7]: 17.2 µM (inactive)
- GI50 [8]: 31.5 µM (inactive)
- GI50 [9]: 16.5 µM (inactive)
- GI50 [10]: 19.1 µM (inactive)
- GI50 [11]: 29.9 µM (inactive)
- GI50 [13]: 29.9 µM (inactive)
- GI50 [14]: 19.3 µM (inactive)
- GI50 [16]: 25.9 µM (inactive)
- GI50 [20]: 26.7 µM (inactive)
- GI50 [17]: 42.9 µM (inactive)
- GI50 [18]: 29 µM (inactive)

Compound: NS(=O)(=O)c1ccc(Nc2c3ccccc3nc3c(C(=O)NCCCN(CCO)CCO)cccc23)cc1
- GI50 [1]: 21.5 µM (inactive)
- GI50 [3]: 22.3 µM (inactive)
- GI50 [4]: > 100 µM (inactive)
- GI50 [5]: 61.1 µM (inactive)
- GI50 [6]: 36.2 µM (inactive)
- GI50 [7]: 31.3 µM (inactive)
- GI50 [9]: > 10 µM (inactive)
- GI50 [10]: 12.8 µM (inactive)
- GI50 [11]: 34.2 µM (inactive)
- GI50 [12]: 14.8 µM (inactive)
- GI50 [13]: 29.9 µM (inactive)
- GI50 [14]: 17.9 µM (inactive)
- GI50 [15]: 17.7 µM (inactive)
- GI50 [16]: 28.6 µM (inactive)
- GI50 [17]: 16.4 µM (inactive)
- GI50 [18]: 19.3 µM (inactive)
- GI50 [19]: 18.2 µM (inactive)

Compound: CSc1c(CC(=O)O)n(Cc2ccccc2)c2ccccc12
- GI50 [1]: > 100 µM (inactive)
- GI50 [3]: 71.1 µM (inactive)
- GI50 [4]: > 100 µM (inactive)
- GI50 [5]: > 100 µM (inactive)
- GI50 [6]: 79.8 µM (inactive)
- GI50 [7]: 61.7 µM (inactive)
- GI50 [8]: > 100 µM (inactive)
- GI50 [9]: > 100 µM (inactive)
- GI50 [10]: > 100 µM (inactive)
- GI50 [11]: > 100 µM (inactive)
- GI50 [12]: > 100 µM (inactive)
- GI50 [13]: > 100 µM (inactive)
- GI50 [14]: 81.3 µM (inactive)
- GI50 [16]: > 100 µM (inactive)
- GI50 [20]: > 100 µM (inactive)
- GI50 [17]: > 100 µM (inactive)
- GI50 [18]: > 100 µM (inactive)
- GI50 [19]: 89.3 µM (inactive)

Compound: Cc1cc2c3c([nH]c2c2ccnc(C)c12)CCCC3
- GI50 [1]: 1.91 µM (inactive)
- GI50 [2]: 12.1 µM (inactive)
- GI50 [3]: 1.84 µM (inactive)
- GI50 [4]: 5.13 µM (inactive)
- GI50 [5]: 1.69 µM (inactive)
- GI50 [6]: 2.12 µM (inactive)
- GI50 [7]: 2.24 µM (inactive)
- GI50 [8]: 1.82 µM (inactive)
- GI50 [9]: 1.69 µM (inactive)
- GI50 [10]: 1.93 µM (inactive)
- GI50 [11]: 3.78 µM (inactive)
- GI50 [12]: 1.55 µM (inactive)
- GI50 [13]: 3.23 µM (inactive)
- GI50 [14]: 1.77 µM (inactive)
- GI50 [15]: 1.95 µM (inactive)
- GI50 [16]: 2.18 µM (inactive)
- GI50 [20]: 1.87 µM (inactive)
- GI50 [17]: 1.77 µM (inactive)
- GI50 [18]: 1.68 µM (inactive)

Compound: O=C1c2c(ccc3c2CCCC3)CC12Cc1ccc3c(c1C2=O)CCCC3
- GI50 [1]: > 100 µM (inactive)
- GI50 [3]: > 100 µM (inactive)
- GI50 [4]: > 100 µM (inactive)
- GI50 [5]: > 100 µM (inactive)
- GI50 [6]: > 100 µM (inactive)
- GI50 [7]: > 100 µM (inactive)
- GI50 [8]: 77.4 µM (inactive)
- GI50 [9]: > 100 µM (inactive)
- GI50 [10]: > 100 µM (inactive)
- GI50 [11]: > 100 µM (inactive)
- GI50 [12]: > 100 µM (inactive)
- GI50 [13]: > 100 µM (inactive)
- GI50 [15]: > 100 µM (inactive)
- GI50 [16]: > 100 µM (inactive)
- GI50 [20]: > 100 µM (inactive)
- GI50 [18]: > 100 µM (inactive)
- GI50 [19]: > 100 µM (inactive)

Compound: NC(=O)C1CCCNC1 (centres undefined)
- GI50 [1]: > 100 µM (inactive)
- GI50 [2]: > 100 µM (inactive)
- GI50 [3]: > 100 µM (inactive)
- GI50 [4]: > 100 µM (inactive)
- GI50 [5]: > 100 µM (inactive)
- GI50 [6]: > 100 µM (inactive)
- GI50 [7]: > 100 µM (inactive)
- GI50 [8]: > 100 µM (inactive)
- GI50 [9]: > 100 µM (inactive)
- GI50 [10]: > 100 µM (inactive)
- GI50 [11]: > 100 µM (inactive)
- GI50 [12]: > 100 µM (inactive)
- GI50 [13]: > 100 µM (inactive)
- GI50 [14]: > 100 µM (inactive)
- GI50 [16]: > 100 µM (inactive)
- GI50 [20]: > 100 µM (inactive)
- GI50 [17]: > 100 µM (inactive)
- GI50 [18]: > 100 µM (inactive)
- GI50 [19]: > 100 µM (inactive)

Compound: N[C@H](C(=O)O)[C@@H]1CC(Cl)=NO1 [ACIVICIN]
- GI50 [1]: 1.07 µM (active)
- GI50 [3]: 3.3 µM (inactive)
- GI50 [4]: 4.44 µM (inactive)
- GI50 [5]: 72.6 µM (inactive)
- GI50 [7]: 14.6 µM (inactive)
- GI50 [8]: 0.746 µM (active)
- GI50 [9]: 3.44 µM (inactive)
- GI50 [10]: 0.74 µM (active)
- GI50 [11]: 1.48 µM (inactive)
- GI50 [12]: 1.99 µM (inactive)
- GI50 [13]: 2.48 µM (inactive)
- GI50 [14]: 2.79 µM (inactive)
- GI50 [15]: 8.99 µM (inactive)
- GI50 [16]: 2.18 µM (inactive)
- GI50 [20]: 25.9 µM (inactive)
- GI50 [17]: 3.5 µM (inactive)
- GI50 [18]: 13.8 µM (inactive)
- GI50 [19]: 4.43 µM (inactive)
